The values that follow come from patent publication US10472320B2, “Process to prepare phenolic ethylenediamine diacetic acid compounds” (Akzo Nobel Chemicals International B.V., priority 2015, dated 2019).

For the data set the following is noted: for appearance of extracted aqueous ligand solution (precipitate formation): after last methyl isobutyl ketone extraction; for concentration of o,o-HBED at which a clear solution was obtained after addition of water: dilution with water after precipitation; for concentration of o,o-HBED at which a clear solution was obtained after addition of water / concentration of o,o-HBED in the extracted aqueous ligand solution: expressed as H4-o,o-HBED; for concentration of o,o-HBED in the extracted aqueous ligand solution: after phenol extraction with methyl isobutyl ketone. As to the method: (§1) Phenol was extracted from the reaction mixture with methyl isobutyl ketone (250 ml and 3 times 125 ml).
as §1
(§2) Phenol was extracted from the reaction mixture with methyl isobutyl ketone (75 ml and 3 times 50 ml).
(§3) Phenol was extracted from the reaction mixture with methyl isobutyl ketone (100 ml and 3 times 50 ml).
as §3, §2
Phenol was extracted from the reaction mixture with methyl isobutyl ketone (85 ml and 3 times 50 ml).
as §2

On to `O=C(O)CN(CCN(CC(=O)O)Cc1ccccc1O)Cc1ccccc1O` [Comparative Example 1, N,N′-di(2-hydroxybenzyl)ethylenediamine-N,N′-diacetic acid, reference compound], for which the “appearance of extracted aqueous ligand solution (precipitate formation)” value (“appearance” below) was “soon a large amount of precipitate was formed” and the “concentration of o,o-HBED at which a clear solution was obtained after addition of water” value is listed as “approximately 6.2%”.
Consider `O=C(O)CN(CCN(CC(=O)O)Cc1ccccc1O)Cc1ccccc1O` [Comparative Example 2, N,N′-di(2-hydroxybenzyl)ethylenediamine-N,N′-diacetic acid, reference compound], for which the “appearance” value was “turned turbid and a lot of product precipitated”; the “concentration of o,o-HBED at which a clear solution was obtained after addition of water” value is listed as 9.6%.
Turning to `O=C(O)CN(CCN(CC(=O)O)Cc1ccccc1O)Cc1ccccc1O` [Comparative Example 3, N,N′-di(2-hydroxybenzyl)ethylenediamine-N,N′-diacetic acid, reference compound], the “appearance” value was “turned turbid and a lot of product precipitated”.
As to `O=C(O)CN(CCN(CC(=O)O)Cc1ccccc1O)Cc1ccccc1O` [Example 1, N,N′-di(2-hydroxybenzyl)ethylenediamine-N,N′-diacetic acid], the “concentration of o,o-HBED in the extracted aqueous ligand solution” value was “approximately 26%”.
As for `O=C(O)CN(CCN(CC(=O)O)Cc1ccccc1O)Cc1ccccc1O` [Example 2, N,N′-di(2-hydroxybenzyl)ethylenediamine-N,N′-diacetic acid], the “appearance” value was “became slightly turbid, but the solution could still be handled easily” and the “concentration of o,o-HBED in the extracted aqueous ligand solution” value was “approximately 23%”.
Regarding `O=C(O)CN(CCN(CC(=O)O)Cc1ccccc1O)Cc1ccccc1O` [Example 3, N,N′-di(2-hydroxybenzyl)ethylenediamine-N,N′-diacetic acid], the “appearance” value was “became slightly turbid, but the solution could still be handled easily” and the “concentration of o,o-HBED in the extracted aqueous ligand solution” value is “approximately 22%”.
In the same order, the values of `O=C(O)CN(CCN(CC(=O)O)Cc1ccccc1O)Cc1ccccc1O` [Example 4, N,N′-di(2-hydroxybenzyl)ethylenediamine-N,N′-diacetic acid] are “remained clear without the formation of any precipitates” and “approximately 22%”.
In the same order, the values of `O=C(O)CN(CCN(CC(=O)O)Cc1ccccc1O)Cc1ccccc1O` [Example 5, N,N′-di(2-hydroxybenzyl)ethylenediamine-N,N′-diacetic acid] are “remained clear without the formation of any precipitates” and “approximately 22%”.
Consider `O=C(O)CN(CCN(CC(=O)O)Cc1ccccc1O)Cc1ccccc1O` [Example 6, N,N′-di(2-hydroxybenzyl)ethylenediamine-N,N′-diacetic acid], for which the “concentration of o,o-HBED in the extracted aqueous ligand solution” value is on record as “approximately 22%”.
As for `O=C(O)CN(CCN(CC(=O)O)Cc1ccccc1O)Cc1ccccc1O` [Example 7, N,N′-di(2-hydroxybenzyl)ethylenediamine-N,N′-diacetic acid], the “appearance” value is listed as “remained clear without the formation of any precipitates” and the “concentration of o,o-HBED in the extracted aqueous ligand solution” value is recorded as “approximately 25%”.
